Measured values published in ChEMBL document CHEMBL1201862, “PubChem BioAssay data set” (2004).
Activity calls are given as the source filed them.

Columns and labels:
[1] = molecular target: T1, Polyadenylate-binding protein 1 (Homo sapiens, UniProt P11940); experiment: PABP1 MLLE–PAM2 interaction inhibitors, dose response, miRNA deadenylation inhibitor project, biochemical, fluorescence polarization, Cy5-PAM2 peptide, secondary (AID 602260); type: functional; details: read-out: IC50_Mean
[2] = HEK293T cell cytotoxicity, dose response, cytotoxicity control for HIV Vif inhibitor project, cherry-picks (AID 652208); type: functional, cell-based
[3] = molecular target: T1, Polyadenylate-binding protein 1; experiment: PABP1 MLLE–PAM2 binding inhibitor potency, dose response, biochemical, fluorescence polarization, FITC-PAM2 peptide (AID 602259); type: functional; details: read-out: IC50_Mean
[4] = molecular target: T2, Replicative DNA helicase DnaB (Mycobacterium tuberculosis, UniProt P9WMR3); experiment: DnaB intein splicing inhibitors, dose response, biochemical, cell-free fluorescence (AID 449749); type: functional
T2 sequence (P9WMR3 whole entry): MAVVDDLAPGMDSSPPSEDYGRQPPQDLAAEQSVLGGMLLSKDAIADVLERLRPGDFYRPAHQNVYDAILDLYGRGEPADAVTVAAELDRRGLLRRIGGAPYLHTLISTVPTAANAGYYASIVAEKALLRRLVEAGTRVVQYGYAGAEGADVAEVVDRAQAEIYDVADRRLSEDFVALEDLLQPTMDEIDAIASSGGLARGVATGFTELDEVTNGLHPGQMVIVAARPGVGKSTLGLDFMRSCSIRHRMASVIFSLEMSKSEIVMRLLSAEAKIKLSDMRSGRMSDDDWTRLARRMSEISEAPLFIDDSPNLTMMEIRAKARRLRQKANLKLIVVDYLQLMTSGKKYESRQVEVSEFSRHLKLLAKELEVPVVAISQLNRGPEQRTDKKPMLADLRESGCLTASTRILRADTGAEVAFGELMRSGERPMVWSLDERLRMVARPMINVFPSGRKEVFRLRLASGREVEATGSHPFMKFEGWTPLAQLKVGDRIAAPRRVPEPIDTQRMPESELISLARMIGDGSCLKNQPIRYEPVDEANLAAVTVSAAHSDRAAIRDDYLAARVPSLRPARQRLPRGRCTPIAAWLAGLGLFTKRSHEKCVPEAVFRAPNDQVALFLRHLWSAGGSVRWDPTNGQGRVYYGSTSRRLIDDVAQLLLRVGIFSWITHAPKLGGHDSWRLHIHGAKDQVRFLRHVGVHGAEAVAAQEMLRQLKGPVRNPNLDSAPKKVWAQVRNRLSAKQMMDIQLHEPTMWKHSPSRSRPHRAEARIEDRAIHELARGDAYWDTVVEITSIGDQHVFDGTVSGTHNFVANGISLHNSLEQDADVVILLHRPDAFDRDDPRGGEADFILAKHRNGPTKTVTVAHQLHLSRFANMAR

[5] = Shn3 3'UTR reporter inhibitors, dose response, cell-based, Clone20 osteoblasts, firefly luciferase, cherry-picked (AID 624132); type: functional;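 further: firefly luciferase luminescence from reporter carrying the Shn3 3'UTR in osteoblasts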
[6] = molecular target: T3, Streptokinase A (Streptococcus pyogenes serotype M1, UniProt P10520); experiment: S. pyogenes streptokinase expression inhibitors, potency, dose response, plasminogen activation absorbance, OD405 (AID 1914); type: functional, Streptococcus pyogenes M1 GAS;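 further: secreted streptokinase activity via plasminogen activation per viability signal from cell pellet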
T3 sequence (P10520 whole entry): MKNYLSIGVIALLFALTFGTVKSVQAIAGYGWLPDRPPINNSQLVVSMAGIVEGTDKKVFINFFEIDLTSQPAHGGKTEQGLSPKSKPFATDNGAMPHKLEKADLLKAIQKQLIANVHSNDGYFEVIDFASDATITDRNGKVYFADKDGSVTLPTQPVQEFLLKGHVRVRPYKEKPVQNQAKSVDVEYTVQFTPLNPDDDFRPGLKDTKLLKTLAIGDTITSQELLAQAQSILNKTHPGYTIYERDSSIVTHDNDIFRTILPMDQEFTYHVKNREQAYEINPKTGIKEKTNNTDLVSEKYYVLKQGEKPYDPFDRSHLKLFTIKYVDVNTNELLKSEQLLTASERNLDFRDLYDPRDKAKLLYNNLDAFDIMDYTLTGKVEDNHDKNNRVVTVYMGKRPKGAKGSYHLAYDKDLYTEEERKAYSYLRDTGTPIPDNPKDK

[7] = HepG2 cell cytotoxicity, dose response, cytotoxicity control for Shn3 inhibitor project, CellTiter-Glo, cherry-picked (AID 624134); type: functional, cell-based
[8] = system: Streptococcus; experiment: Group A Streptococcus viability loss, dose response, counter-screen for streptokinase expression inhibitor project, luminescence, BacTiterGlo (AID 1915); type: functional, organism-based;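 further: potency for reduction of bacterial viability or growth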
[9] = system: Streptococcus sp. 'group A'; experiment: growth inhibition of control SK(-) GAS strain, dose response, counter-screen for streptokinase expression inhibitor project, luminescence, kanamycin, BacTiterGlo, confirmation (AID 1900); type: functional, organism-based
[10] = control 3'UTR Renilla luciferase suppression, dose response, counter-screen for Shn3 inhibitor project, cell-based, Clone20-Shn3RL, cherry-picked (AID 624133); type: functional
[11] = C. albicans growth with fluconazole, confirmation, fluorescence, retest (AID 2467); type: functional, cell-based
[12] = molecular target: T4, Protein RecA (Mycobacterium tuberculosis, UniProt P9WHJ3); experiment: Fluorescence Cell-Free Homogeneous Dose Retest to Identify Inhibitors of RecA-Intein Splicing Activity. [Related pubchem assays (depositor defined):AID2097, AID2223, AID489010, AID492950]; type: functional
T4 sequence (P9WHJ3 whole entry): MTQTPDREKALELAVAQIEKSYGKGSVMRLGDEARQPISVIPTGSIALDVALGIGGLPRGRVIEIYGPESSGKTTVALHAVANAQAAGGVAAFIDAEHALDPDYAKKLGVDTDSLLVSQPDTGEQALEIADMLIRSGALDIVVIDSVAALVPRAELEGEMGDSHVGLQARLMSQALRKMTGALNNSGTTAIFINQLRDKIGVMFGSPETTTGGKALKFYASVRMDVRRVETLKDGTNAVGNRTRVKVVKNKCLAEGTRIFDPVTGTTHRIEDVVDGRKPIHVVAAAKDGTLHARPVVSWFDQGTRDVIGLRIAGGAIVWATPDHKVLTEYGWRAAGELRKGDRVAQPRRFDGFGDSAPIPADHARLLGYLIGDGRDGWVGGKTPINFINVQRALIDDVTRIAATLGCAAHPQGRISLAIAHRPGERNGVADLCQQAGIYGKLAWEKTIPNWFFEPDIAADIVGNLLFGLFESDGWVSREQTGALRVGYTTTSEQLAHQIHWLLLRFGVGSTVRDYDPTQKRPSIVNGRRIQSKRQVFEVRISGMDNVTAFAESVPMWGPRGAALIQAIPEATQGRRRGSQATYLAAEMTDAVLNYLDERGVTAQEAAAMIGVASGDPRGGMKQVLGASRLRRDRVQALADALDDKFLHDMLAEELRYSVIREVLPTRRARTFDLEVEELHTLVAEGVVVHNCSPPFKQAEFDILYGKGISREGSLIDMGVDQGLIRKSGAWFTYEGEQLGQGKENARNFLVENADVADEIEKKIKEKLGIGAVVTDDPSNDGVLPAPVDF

[13] = NIH-3T3 fibroblast cytotoxicity, dose response, cytotoxicity control, cell-based, fluorescence, Alamar Blue, secondary assay (AID 2327); type: functional;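 further: NIH-3T3 mouse fibroblasts cultured with fluconazole at 8 µg/mL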
[14] = molecular target: Heat shock protein HSP 90-alpha (Homo sapiens, UniProt P07900); type: functional, organism-based
[15] = molecular target: Albumin (Bos taurus, UniProt P02769); experiment: Counterscreen for inhibitors of T-cell receptor (TCR)-CD3 interaction: Fluorescence-based biochemical high throughput dose response assay to identify inhibitors of T-cell receptor (TCR)-CD3 interaction using a TAMRA-labeled BSA probe.; type: functional
Albumin, sequence (P02769 whole entry): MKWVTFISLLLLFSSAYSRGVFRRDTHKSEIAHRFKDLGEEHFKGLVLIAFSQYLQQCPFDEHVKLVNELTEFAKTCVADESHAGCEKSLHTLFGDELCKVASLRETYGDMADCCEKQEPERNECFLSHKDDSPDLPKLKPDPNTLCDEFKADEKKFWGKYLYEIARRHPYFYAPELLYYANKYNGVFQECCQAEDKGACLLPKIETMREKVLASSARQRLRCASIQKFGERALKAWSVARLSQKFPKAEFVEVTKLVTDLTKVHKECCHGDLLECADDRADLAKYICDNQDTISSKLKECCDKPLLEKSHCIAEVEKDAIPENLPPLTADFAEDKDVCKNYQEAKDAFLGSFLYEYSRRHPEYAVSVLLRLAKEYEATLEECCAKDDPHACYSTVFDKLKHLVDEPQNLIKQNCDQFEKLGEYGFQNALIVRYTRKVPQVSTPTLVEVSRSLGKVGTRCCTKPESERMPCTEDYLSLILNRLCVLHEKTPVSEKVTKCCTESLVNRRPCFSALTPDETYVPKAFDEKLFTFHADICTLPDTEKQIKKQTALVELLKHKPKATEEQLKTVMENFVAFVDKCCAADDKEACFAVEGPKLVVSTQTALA

[16] = molecular target: Induced myeloid leukemia cell differentiation protein Mcl-1 (Homo sapiens, UniProt Q07820); type: functional
Induced myeloid leukemia cell differentiation protein Mcl-1, sequence (Q07820 whole entry): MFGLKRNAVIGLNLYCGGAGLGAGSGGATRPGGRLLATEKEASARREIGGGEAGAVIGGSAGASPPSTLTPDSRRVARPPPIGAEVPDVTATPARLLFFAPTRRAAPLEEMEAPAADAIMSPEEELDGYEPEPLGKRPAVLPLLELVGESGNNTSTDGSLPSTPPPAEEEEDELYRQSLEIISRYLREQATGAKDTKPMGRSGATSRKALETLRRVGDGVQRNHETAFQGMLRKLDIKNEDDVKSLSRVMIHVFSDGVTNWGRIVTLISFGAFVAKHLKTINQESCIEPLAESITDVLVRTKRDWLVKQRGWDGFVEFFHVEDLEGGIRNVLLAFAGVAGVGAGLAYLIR

[17] = growth suppression of PTEN-null colon cells, dose response, cell-based, HCT116 PTEN knockout (AID 1047); type: functional;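 further: HCT116 colon tumor cells with PTEN knocked out; cells exposed to compound for 60 hours before readout; potency for loss of cell viability measured by luminescence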
[18] = growth suppression of beta-catenin-knockout colon cells, dose response, cell-based, HCT116, human colon tumor (AID 1045); type: functional;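 further: HCT116 colon tumor cells with beta catenin knocked out; cells exposed to compound for 60 hours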
[19] = system: HEK293; experiment: cells; details: Homo sapiens
[20] = system: HEK293; experiment: cells; details: Homo sapiens; remark: listed apart in the source

T1 sequence (P11940 whole entry): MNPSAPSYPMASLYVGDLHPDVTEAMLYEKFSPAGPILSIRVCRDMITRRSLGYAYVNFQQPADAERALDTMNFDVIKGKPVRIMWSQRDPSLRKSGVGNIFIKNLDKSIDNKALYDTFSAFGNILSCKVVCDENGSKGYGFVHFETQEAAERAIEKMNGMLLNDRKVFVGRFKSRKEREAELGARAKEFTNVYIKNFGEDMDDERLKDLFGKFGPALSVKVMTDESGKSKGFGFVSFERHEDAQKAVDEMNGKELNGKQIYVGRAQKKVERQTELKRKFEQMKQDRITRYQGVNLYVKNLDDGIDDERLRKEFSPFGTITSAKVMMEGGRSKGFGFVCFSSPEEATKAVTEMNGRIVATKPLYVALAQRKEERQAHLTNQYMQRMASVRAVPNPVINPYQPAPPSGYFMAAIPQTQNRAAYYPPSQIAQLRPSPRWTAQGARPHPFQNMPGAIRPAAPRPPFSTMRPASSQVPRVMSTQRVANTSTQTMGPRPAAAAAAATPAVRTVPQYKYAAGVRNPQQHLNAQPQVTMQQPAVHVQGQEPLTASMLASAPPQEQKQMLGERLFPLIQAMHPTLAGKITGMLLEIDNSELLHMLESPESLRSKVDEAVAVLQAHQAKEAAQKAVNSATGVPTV

Compound	IC50 [1]	AC50 [2]	IC50 [3]	AC50 [4]	AC50 [5]	EC50 [6]	AC50 [7]	EC50 [8]	EC50 [9]	AC50 [10]	EC50 [11]	EC50 [12]	EC50 [13]	AC50 [14]	IC50 [15]	IC50 [16]	EC50 [17]	EC50 [18]	EC50 [19]	EC50 [20]
Cc1ccc(C(c2cc(Cl)c3cccnc3c2O)N2CCN(C)CC2)cc1 (stereo not drawn)	> 66 µM (inactive)	> 52 µM (inactive)	> 66 µM (inactive)	> 380 µM (inactive)	5.54 µM (active)	> 150 µM (not active)	35.2 µM (active)	15.3 µM (active)	1.49 µM (active)	16.4 µM (active)	0.374 µM (active)	1.96 µM (active)	3.84 µM (inconclusive)	1.59 µM (active)	–	–	–	–	–	–
CCC1=NN(C(=O)c2cccc([N+](=O)[O-])c2)C(O)(c2ccc(C)cc2)C1 (stereo not drawn)	–	–	–	–	–	–	–	–	–	–	–	–	–	–	> 94.1 µM (inactive)	–	–	–	–	–
COc1ccc(NC(=O)Cn2ncc(Cl)c(Cl)c2=O)cc1S(=O)(=O)N1CCOCC1	–	10.8 µM (active)	–	44.2 µM (active)	–	–	–	–	–	–	–	10.1 µM (active)	–	–	–	6.5 µM (active)	7.27 µM (active)	5.71 µM (active)	> 59.6 µM (inactive)	> 59.6 µM (inactive)
